Measurements taken from US12492192B2, “Crystalline form of lifitegrast, and pharmaceutical composition comprising the same” (YS LIFE SCIENCE CO. LTD., priority 2020, dated 2025).
In brackets after ≈: the same amount, converted by molar mass. Entries after “also recorded” stand apart in the source; their conditions may differ.

Tests used:
Assay type in all cases: physicochemical
[1] = Hygroscopicity test (DVS); conditions: for Moisture Absorption at 25° C./80% RH: DVS, isothermal 25° C.; for Hygroscopicity (DVS analysis, in words): 25° C., relative humidity 5-95%, EP standard 25° C., 80% RH
Method: Using a DVS (dynamic vapor absorption, VTI SGA-100, TA Instruments) which is a vapor adsorption and desorption device, crystalline forms Y and S of lifitegrast obtained from the Examples and crystalline form A of lifitegrast obtained from the Comparative Example were subjected to moisture adsorption and desorption once repeatedly, respectively, at an isothermal condition of 25° C. and in a relative humidity range of 5-95% with an interval of 5% RH.

[2] = Solubility test in water; conditions: for Solubility in water: stirred at room temperature; for Solubility compared with that of crystalline form A: room temperature, relative to crystalline form A
Method: After crystalline forms Y and S of lifitegrast obtained from the Examples and crystalline form A of lifitegrast obtained from the Comparative Example were dissolved in water, respectively, they were sufficiently stirred at room temperature to perform a solubility test.

[3] = Thermal stability test (XRPD and HPLC after storage); conditions: 40° C./75% RH, 4 weeks, brown vial in aluminum pouch
Method: 50 mg of crystalline form Y and 50 mg of crystalline form S obtained from the Examples were put into brown vials, respectively, and secondary packaging was carried out in an aluminum pouch, followed by storing at 40±2° C. and 75±5% RH. After 4 weeks, each sample was taken out, X-ray powder diffraction (XRPD) analysis was performed to evaluate the stability of the crystalline form, and high performance liquid chromatography (HPLC) analysis was performed to evaluate the generation and increase of related substances.
The results of the X-ray powder diffraction (XRPD) analysis and high performance liquid chromatography (HPLC) analysis are shown in Table 5 and 6, respectively.

Moisture Absorption at 25° C./80% RH [1] [%] | Solubility in water [2] [µg/mL] | Solubility compared with that of crystalline form A [2] | Structure (SMILES) | Generation and increase of related substances (HPLC analysis) [3] | Stability of the crystalline form (XRPD analysis) [3] | Hygroscopicity (DVS analysis, in words) [1]
1.0 | 32 (≈ 52 µM) | – | CS(=O)(=O)c1cccc(C[C@H](NC(=O)c2c(Cl)cc3c(c2Cl)CCN(C(=O)c2ccc4ccoc4c2)C3)C(=O)O)c1 [Crystalline Form A, lifitegrast] | – | – | –
0.1 | 64 (≈ 104 µM) | twice or more | CS(=O)(=O)c1cccc(C[C@H](NC(=O)c2c(Cl)cc3c(c2Cl)CCN(C(=O)c2ccc4ccoc4c2)C3)C(=O)O)c1 [Crystalline Form S, lifitegrast] | no related substance was observed; also recorded: No generation of Related | did not change in appearance and polymorphism; also recorded: Retention of Crystalline Form | low hygroscopicity; also recorded: lower hygroscopicity than the crystalline form A
2.9 | 67 (≈ 109 µM) | twice or more | CS(=O)(=O)c1cccc(C[C@H](NC(=O)c2c(Cl)cc3c(c2Cl)CCN(C(=O)c2ccc4ccoc4c2)C3)C(=O)O)c1 [Crystalline Form Y, lifitegrast] | no related substance was observed; also recorded: No generation of Related | did not change in appearance and polymorphism; also recorded: Retention of Crystalline Form | low hygroscopicity
